EP0414175A2, “Use of xanthine derivatives to reduce nephrotoxicity” (HOECHST AKTIENGESELLSCHAFT, priority 1989, dated 1991)

How the values were obtained:
Mäuse = assay: Mortality of mice after repeated intravenous injections, 42-day observation; settings: 30 daily i.v. injections, 5 consecutive days per block, 4 blocks, 2 treatment-free days between, Amphotericin B 4 mg/kg, xanthine derivatives 20 mg/kg each, dissolved in 5 % aqueous glucose solution
[1] = Pathophysiological serum findings (nephrotoxicity markers) in mice after repeated intravenous treatment; format: in vivo, Mäuse; settings: serum of mice, treated 9 times intravenously within 11 days; pooled sera of 3 mice each; Pentoxifyllin 20 mg/kg, Amphotericin B 4 mg/kg
Protocol: Es wurden Mäuse im Verlauf von 11 Tagen 9 mal intravenös mit Pentoxifyllin (20 mg/kg), Amphotericin B (4 mg/kg) und Amphotericin B (4 mg/kg) in Kombination mit Pentoxifyllin (20 mg/kg) sowie mit einer Lösungsmittelkontrolle behandelt. Zur Beurteilung der Nephrotoxizität der jeweils verabreichten Substanzen wurden bei den Versuchstieren folgende Stoffe bestimmt: Creatinin: Eine gestörte Creatininclearance durch eine geschädigte Niere führt zu einem erhöhten Gehalt von Creatinin im Serum (Hypercreatininaemie) Harnstoff : Erhöhte Konzentrationen im Serum werden regelmäßig bei einer schweren Nierenfunktionsstörung beobachtet. Eine verminderte Harnstoffclearance führt zu einem erhöhten Gehalt im Serum Kalium: Da Kaliumionen bis zu 95 % durch die Nieren ausgeschieden werden, ist eine Hyperkaliaemie ein deutliches Zeichen für eine schwere Nierenfunktionsstörung. Tabelle 1

Nieren = assay: Histopathological examination of kidneys of intravenously treated mice (PAS staining); format: in vivo, Mäuse; settings: mice treated i.v. over 11, 25, 39 or 53 days; Pentoxifyllin 20 mg/kg, Amphotericin B 4 mg/kg; 4 animals per time point; compared with glucose solvent control
Protocol: Weiterhin läßt sich die nephrotoxizitätssenkende Wirkung der Xanthinderivate durch histologische Untersuchung von Versuchstieren feststellen.
Dazu wurden […] Mäuse mit Glukose, Pentoxifyllin (20 mg/kg), Amphotericin B (4 mg/kg) oder der Kombination von Pentoxifyllin/Amphotericin B (20 mg/kg bzw. 4 mg/kg) über einen Zeitraum von 11, 25, 39 oder 53 Tagen intravenös behandelt.
Nach den angegebenen Versuchszeiten wurden je 4 Tiere getötet und Serum für serologische Untersuchungen entnommen. Die Nieren wurden in Bouin'schem Gemisch fixiert, nach üblicher histologischer Technik aufgearbeitet und PAS-gefärbt.

Structure (SMILES) | Mortalitäten nach einer Beobachtungszeit von 42 Tagen (Mäuse) | Creatinin [1] | Harnstoff [1] | Kalium [1] | histopathologische Untersuchungen der Nieren (Nieren)
CCOCn1cnc2c1c(=O)n(CCCCC(C)(C)O)c(=O)n2C [7-Ethoxymethyl-1-(5-hydroxy-5-methylhexyl)-3-methyl-xanthin] | 0 von 25 Mäusen gestorben | – | – | – | –
C[C@@H]1[C@H](O)[C@@H](C)/C=C/C=C/C=C/C=C/C=C/C=C/C=C/[C@H](O[C@@H]2O[C@H](C)[C@@H](O)[C@H](N)[C@@H]2O)C[C@@H]2O[C@](O)(C[C@@H](O)C[C@@H](O)[C@H](O)CC[C@@H](O)C[C@@H](O)CC(=O)O[C@H]1C)C[C@H](O)[C@H]2C(=O)O [Amphotericin B] | 73 von 92 Mäusen gestorben | 55 µmol/L | 10,5 mmol/l | 10,1 mmol/l | erhebliche Schäden des tubulären Apparats
CC(=O)CCCCn1c(=O)c2c(ncn2C)n(C)c1=O [Pentoxifyllin, 3,7-Dimethyl-1-(5-oxohexyl)xanthin] | 0 von 25 Mäusen gestorben | – | – | – | –
Cn1c(=O)n(CCCCC(C)(C)O)c(=O)c2[nH]cnc21 [1-(5-Hydroxy-5-methyl-hexyl)-3-methylxanthin] | 0 von 25 Mäusen gestorben | – | – | – | –
